Measured values from patent US12582706B2, “Tolerogenic antigen presenting cells” (Cell4Cure AB, priority 2019, dated 2026).

Key:
DCs [1] = test: DC expression of CD83 (flow cytometry); type: cell-based, human; details: Example 13, FIG. 13(A); C1 10 nM, TGFbeta 10 ng/ml, RA 2 uM; compared to control DCs
Experimental: (§1) CD14^+ monocytes were cultured at 1.25×10^6 cells/mi for 7 days in GMP DC Medium (CellGenix, Freiburg, Germany) containing HEPES, GlutaMAX and Penicillin-Streptomycin solution (Thermo Fisher, Waltham, MA) in the presence of granulocyte-macrophage colony-stimulating factor (GM-CSF; 100 ng/ml; PeproTech, London, UK) and interleukin-4 (IL-4; 100 ng/ml; PeproTech). Cells were replenished on day 3 with fresh medium and cytokines. […]
(§2) Cell surface expression was investigated using the following fluorescently labeled antibodies: CD11c (B-Ly6), CD83 (HB15e), CD86 (BU63), ILT3 (ZM4.1), CD141 (M80), GARP (7611), CD103 (B-Ly7), MERTK (590H11G1E3), BTLA (J168-540), CD49b (P1E6-05), HLA-G (87G), LAP (FNLAP), from BD Biosciences (Franklin Lakes, NJ), BioLegend (San Diego, CA) and Thermo Fisher. DCs were washed and resuspended in staining buffer (phosphate-buffered saline supplemented with 0.5% BSA and 2 mM EDTA) and incubated with antibody for 20 min followed by washing before acquisition on a MACSQuant 10 flow cytometer (Miltenyi Biotec) and analyzed using FlowJo software (BD Biosciences). […]

DCs [2] = test: DC expression of CD86 (flow cytometry); type: cell-based, human
Experimental: as §1, §2

CD4^+ T cells [3] = test: Capacity of DCs to induce T cell proliferation in allogeneic MLR (3H-thymidine); type: cell-based, human; details: for induction of T cell proliferation (CPM): Example 13, FIG. 13(G), compared to control DCs; for effect on the tolerogenic effect of RA: Example 13, summary
Experimental: (§3) CD14^+ monocytes were cultured at 1.25×10^6 cells/mi for 7 days in GMP DC Medium (CellGenix, Freiburg, Germany) containing HEPES, GlutaMAX and Penicillin-Streptomycin solution (Thermo Fisher, Waltham, MA) in the presence of granulocyte-macrophage colony-stimulating factor (GM-CSF; 100 ng/ml; PeproTech, London, UK) and interleukin-4 (IL-4; 100 ng/ml; PeproTech). Cells were replenished on day 3 with fresh medium and cytokines. Control DCs were differentiated in GM-CSF and IL-4 without addition of any further compounds and optionally further were treated with lipopolysaccharide (LPS; 0.5 ug/ml; Sigma-Aldrich, Saint Louise, MO) or a pro-inflammatory cytokine cocktail consisting of TNFalpha (10 ng/ml; PeproTech), IL-1 beta (10 ng/ml; PeproTech), and prostaglandin E2 (PGE2; 1 ug/ml; Sigma) on day 6 to generate stimulated immunogenic DCs. Tolerogenic DCs (tolDCs) were generated by treatment with various tolerogenic compounds: AhR agonist “C1” (C1; 20 nM; IMA-06201; Immunahr A B, Lund, Sweden) on days 0 and 3, TGFbeta1 (10 or 20 ng/ml; PeproTech) on day 3, and retinoic acid (2 uM; Sigma-Aldrich) on day 6. Control tolDC for comparison were established by treatment with Dexamethasone (Dex; 100 nM; Sigma-Aldrich) and Vitamin D3 (VitD3; 100 nM, StemCell Technologies) on day 3. Phenotypic stability of TolDCs was investigated by addition of LPS (0.5 ug/ml) or a pro-inflammatory cytokine cocktail consisting of TNFalpha (10 ng/ml), IL-1beta (10 ng/ml), PGE2 (1 ug/ml), and for Example 24 also IL-6 (10 ng/ml), for the last 24 hours of culture. On day 7, DCs were harvested and washed extensively before phenotyping and functional assays were performed.
In order to analyse the T cell stimulatory capacity of the generated DC populations, allogeneic MLRs were performed. DC/T cell cultures were carried out in complete medium: RPMI-1640 (Thermo Fisher) containing fetal bovine serum (FBS; 10%; Thermo Fisher), HEPES, GlutaMAX and Penicillin-Streptomycin solution. T cells (10^5 cells/well) were cultured with DCs at a T cell: DC ratio of 10:1 for 5-7 days. Proliferation was determined by incorporation of ^3H-thymidine for the last 18 hours of culture. For determination of CD4^+CD49b^+LAG3^+ Tr1 cells, cells were phenotyped as described below. For determination of CD25^hiFoxp3^+ Treg induction, the T cells from the MLR cultures were rested for additionally 7 days in complete medium containing IL-2 (20 IU/ml; PeproTech) and then subjected to phenotyping as described below.
Control DCs were differentiated from CD14^+ monocytes by culturing in GM-CSF and IL-4 for 7 days. Control DCs were either unstimulated or stimulated with LPS which was added on day 6 to generate immunogenic control DCs. […] TolDCs for comparison were established by treatment with Dex at 100 nM and VitD3 at 100 nM on day 3. On day 6, some of the DCs were treated with LPS (FIG. 5 (A); black bars) or a pro-inflammatory cytokine cocktail consisting of TNFalpha, IL-1beta and PGE2 (FIG. 5 (B); black bars) to test for phenotypical stability under various conditions. All cells were harvested on day 7 and cocultures with CD4^+ T cells were setup in an MLR setting at a T cell:DC ratio of 10:1. At the end of the 7-day cultures, proliferation of T cells was determined by ^3H-thymidine incorporation.
Various compounds were tested for their capacity to induce a tolerogenic phenotype in DCs. […] AhR agonist C1 (AhR ag) at 10 nM on days 0 and 3, TGFbeta at 10 ng/ml on day 3, and RA at 2 uM on day 6. […]

DCs [4] = test: DC expression of CD103 (flow cytometry); type: cell-based, human; details: Example 13, FIG. 13(E); compared to control DCs
Experimental: as §1, §2

CD4^+ T cells [5] = test: Capacity of DCs to induce CD25^hiFoxp3^+ Tregs in time-extended MLR; type: cell-based, human; details: Example 13, FIG. 13(H); compared to control DCs
Experimental: as §3
In order to analyse the T cell stimulatory capacity of the generated DC populations, allogeneic MLRs were performed. DC/T cell cultures were carried out in complete medium: RPMI-1640 (Thermo Fisher) containing fetal bovine serum (FBS; 10%; Thermo Fisher), HEPES, GlutaMAX and Penicillin-Streptomycin solution. […] Proliferation was determined by incorporation of ^3H-thymidine for the last 18 hours of culture. […]

human DCs = details: cited from earlier work
DCs [6] = test: DC expression of ILT3 (flow cytometry); type: cell-based, human; details: Example 13, FIG. 13(C); compared to control DCs
Experimental: as §1, §2

DCs [7] = test: DC frequency of CD141^+GARP^+ cells (flow cytometry); type: cell-based, human; details: Example 13, FIG. 13(F); compared to control DCs
Experimental: as §1, §2

T cells = details: Bakdash et al, 2015; cited from earlier work
DCs [8] = test: DC tolerogenic index ILT3/CD86 (MFI ratio); type: cell-based, human; details: Example 13, FIG. 13(D); compared to control DCs
Source text: The optimal tolDCs should express both low levels of co-stimulatory molecules and high levels of tolerogenic molecules. Thus, to take into account the combined effect of this, the ratio between the expression levels of representative tolerogenic and co-stimulatory molecules could be depicted as a proxy for the tolerogenic capacity of a certain subset of tolDCs. FIGS. 4 (A) and (B) show such tolerogenic index, defined as the ILT3/CD86 expression (MFI) ratio, on DCs cultured under various conditions in the absence (FIG. 4 (A); grey bars) or presence of LPS (FIG. 4 (B); black bars).

[9] = during DC differentiation and maturation

Compound	CD83 expression (MFI) on DCs (DCs [1])	CD86 expression (MFI) on DCs (DCs [2]; Example 13, FIG. 13(B), compared to control DCs)	induction of T cell proliferation (CPM) (CD4^+ T cells [3])	effect on the tolerogenic effect of RA (CD4^+ T cells [3])	CD103 expression (MFI) on DCs (DCs [4])	induction of Tregs (CD4^+CD25^+Foxp3^+) (CD4^+ T cells [5])	differentiation of naïve T cells into Treg cells by treated DCs (human DCs; Jurado-Manzano et al, 2017)	expression of the enzyme IDO (human DCs; [9])	production of pro-inflammatory cytokines (human DCs; [9])	CD86 expression (MFI) on DCs (DCs [2]; FIG. 2(B), whether or not stimulated with LPS, compared to corresponding control DCs)	ILT3 expression (MFI) on DCs (DCs [6])	frequency of GARP^+CD141^+ cells (DCs [7])	differentiation of Treg cells (T cells)	gut-homing specificity in T cells (T cells)	tolerogenic ratio (ILT3/CD86) (DCs [8])
CCN(C(=O)c1c(O)c2c(Cl)cccc2n(C)c1=O)c1ccccc1 [AhR agonist, N-ethyl-N-phenyl-5-chloro-1,2-dihydro-4-hydroxy-1-methyl-2-oxo-quinoline-3-carboxamide]	lower expression	lower expression	slightly more T cell proliferation	strengthens the tolerogenic effect of RA	higher expression of CD103	slightly more Tregs									
O=Cc1c2c(cc3c1=Nc1ccccc1-3)=Nc1ccccc1-2 [FICZ, 6-formylindolo[3,2-b]carbazole]							able to induce the differentiation	increased expression of the enzyme IDO	reduced production of pro-inflammatory cytokines such as IL-6 and TNF-alpha						
CC1=C(/C=C/C(C)=C/C=C/C(C)=C/C(=O)O)C(C)(C)CCC1 [RA, all-trans retinoic acid]			less T cell proliferation			more Tregs				no resistance to upregulate CD86	higher expression of ILT3	higher frequency of GARP^+CD141^+ cells	enhance the differentiation of Foxp3^+ inducible as well as IL-10 producing Treg cells	induce gut-homing specificity in T cells	
TGFbeta: transforming growth factor beta; TGFbeta1 (PeproTech) used in the examples			less T cell proliferation	strengthens the tolerogenic effect of RA	slightly higher	more Tregs									slightly higher
